Data reported in the NIST ThermoML archive (doi:10.1021/je300017m).

Assay: mn = molality of the nth substance listed, in mol/kg
Conditions: 101 kPa, Liquid

CCCCCCCCCCCCn1cc[n+](C)c1.[Br-] [1-dodecyl-3-methylimidazolium bromide] + C[S+](C)[O-]
Conditions | mass density [kg/m3]
293.15 K, m1 = 0.00397 | 1100.23
293.15 K, m1 = 0.00623 | 1100.24
293.15 K, m1 = 0.00818 | 1100.25
293.15 K, m1 = 0.01037 | 1100.26
293.15 K, m1 = 0.01216 | 1100.26
293.15 K, m1 = 0.01421 | 1100.27
293.15 K, m1 = 0.01656 | 1100.28
293.15 K, m1 = 0.01857 | 1100.29
293.15 K, m1 = 0.02122 | 1100.3
293.15 K, m1 = 0.02403 | 1100.31
303.15 K, m1 = 0.00371 | 1090.4
303.15 K, m1 = 0.00614 | 1090.4
303.15 K, m1 = 0.00792 | 1090.41
303.15 K, m1 = 0.00994 | 1090.42
303.15 K, m1 = 0.0118 | 1090.43
303.15 K, m1 = 0.01399 | 1090.44
303.15 K, m1 = 0.01604 | 1090.45
303.15 K, m1 = 0.01817 | 1090.46
303.15 K, m1 = 0.01986 | 1090.47
303.15 K, m1 = 0.02211 | 1090.48
308.15 K, m1 = 0.00436 | 1085.43
308.15 K, m1 = 0.00683 | 1085.43
308.15 K, m1 = 0.00903 | 1085.45
308.15 K, m1 = 0.01149 | 1085.46
308.15 K, m1 = 0.01349 | 1085.47
308.15 K, m1 = 0.01606 | 1085.48
308.15 K, m1 = 0.01812 | 1085.49
308.15 K, m1 = 0.02147 | 1085.51
308.15 K, m1 = 0.02348 | 1085.52
308.15 K, m1 = 0.02922 | 1085.55
313.15 K, m1 = 0.00453 | 1080.48
313.15 K, m1 = 0.00685 | 1080.5
313.15 K, m1 = 0.00907 | 1080.51
313.15 K, m1 = 0.01123 | 1080.52
313.15 K, m1 = 0.01315 | 1080.53
313.15 K, m1 = 0.01625 | 1080.55
313.15 K, m1 = 0.01812 | 1080.56
313.15 K, m1 = 0.02054 | 1080.57
313.15 K, m1 = 0.02269 | 1080.59

C[S+](C)[O-] [dimethyl sulfoxide] + CCCCCCCCCCn1cc[n+](C)c1.[Br-]
m2 = 0
Conditions | mass density [kg/m3]
293.15 K | 1100.22
303.15 K | 1090.37
308.15 K | 1085.42
313.15 K | 1080.45

C[S+](C)[O-] [dimethyl sulfoxide] + CCCCCCCCn1cc[n+](C)c1.[Br-]
m2 = 0
Conditions | mass density [kg/m3]
293.15 K | 1100.22
303.15 K | 1090.34
308.15 K | 1085.41
313.15 K | 1080.43

CCCCCCCCCCn1cc[n+](C)c1.[Br-] [1-decyl-3-methylimidazolium bromide] + C[S+](C)[O-]
Conditions | mass density [kg/m3]
293.15 K, m1 = 0.00402 | 1100.27
293.15 K, m1 = 0.00649 | 1100.3
293.15 K, m1 = 0.00933 | 1100.34
293.15 K, m1 = 0.01163 | 1100.38
293.15 K, m1 = 0.0141 | 1100.41
293.15 K, m1 = 0.0167 | 1100.45
293.15 K, m1 = 0.01877 | 1100.49
293.15 K, m1 = 0.02117 | 1100.53
293.15 K, m1 = 0.02341 | 1100.56
293.15 K, m1 = 0.02766 | 1100.63
303.15 K, m1 = 0.00542 | 1090.45
303.15 K, m1 = 0.00729 | 1090.48
303.15 K, m1 = 0.00969 | 1090.52
303.15 K, m1 = 0.01151 | 1090.55
303.15 K, m1 = 0.01339 | 1090.58
303.15 K, m1 = 0.01545 | 1090.61
303.15 K, m1 = 0.01741 | 1090.65
303.15 K, m1 = 0.01809 | 1090.66
303.15 K, m1 = 0.01996 | 1090.69
308.15 K, m1 = 0.00501 | 1085.49
308.15 K, m1 = 0.00676 | 1085.52
308.15 K, m1 = 0.01153 | 1085.59
308.15 K, m1 = 0.01415 | 1085.64
308.15 K, m1 = 0.01624 | 1085.68
308.15 K, m1 = 0.0184 | 1085.72
308.15 K, m1 = 0.02101 | 1085.76
308.15 K, m1 = 0.0233 | 1085.8
313.15 K, m1 = 0.00484 | 1080.52
313.15 K, m1 = 0.0071 | 1080.56
313.15 K, m1 = 0.00963 | 1080.6
313.15 K, m1 = 0.01229 | 1080.65
313.15 K, m1 = 0.01489 | 1080.69
313.15 K, m1 = 0.01739 | 1080.74
313.15 K, m1 = 0.0195 | 1080.78
313.15 K, m1 = 0.02205 | 1080.82
313.15 K, m1 = 0.02449 | 1080.87

C[S+](C)[O-] [dimethyl sulfoxide] + CCCCCCCCCCCCn1cc[n+](C)c1.[Br-]
m2 = 0
Conditions | mass density [kg/m3]
293.15 K | 1100.22
303.15 K | 1090.38
308.15 K | 1085.41
313.15 K | 1080.47
